We go through 20 compounds from patent publication US11066369B2, “N-(pyridin-2-yl)pyridine-sulfonamide derivatives and their use in the treatment of disease” (Novartis AG, priority 2016, dated 2021).

The EC50 is the concentration giving half of the maximal effect.

Where a name gives a salt, the structure may show the parent alone.

For assay [1], the target named is T1, horseradish peroxidase (HRP) tagged delF508-CFTR (Homo sapiens, UniProt P13569, DEL508-508).
T1 construct: expressed in transfected cells
T1 sequence (P13569 with tags, fused parts or gaps DEL508-508): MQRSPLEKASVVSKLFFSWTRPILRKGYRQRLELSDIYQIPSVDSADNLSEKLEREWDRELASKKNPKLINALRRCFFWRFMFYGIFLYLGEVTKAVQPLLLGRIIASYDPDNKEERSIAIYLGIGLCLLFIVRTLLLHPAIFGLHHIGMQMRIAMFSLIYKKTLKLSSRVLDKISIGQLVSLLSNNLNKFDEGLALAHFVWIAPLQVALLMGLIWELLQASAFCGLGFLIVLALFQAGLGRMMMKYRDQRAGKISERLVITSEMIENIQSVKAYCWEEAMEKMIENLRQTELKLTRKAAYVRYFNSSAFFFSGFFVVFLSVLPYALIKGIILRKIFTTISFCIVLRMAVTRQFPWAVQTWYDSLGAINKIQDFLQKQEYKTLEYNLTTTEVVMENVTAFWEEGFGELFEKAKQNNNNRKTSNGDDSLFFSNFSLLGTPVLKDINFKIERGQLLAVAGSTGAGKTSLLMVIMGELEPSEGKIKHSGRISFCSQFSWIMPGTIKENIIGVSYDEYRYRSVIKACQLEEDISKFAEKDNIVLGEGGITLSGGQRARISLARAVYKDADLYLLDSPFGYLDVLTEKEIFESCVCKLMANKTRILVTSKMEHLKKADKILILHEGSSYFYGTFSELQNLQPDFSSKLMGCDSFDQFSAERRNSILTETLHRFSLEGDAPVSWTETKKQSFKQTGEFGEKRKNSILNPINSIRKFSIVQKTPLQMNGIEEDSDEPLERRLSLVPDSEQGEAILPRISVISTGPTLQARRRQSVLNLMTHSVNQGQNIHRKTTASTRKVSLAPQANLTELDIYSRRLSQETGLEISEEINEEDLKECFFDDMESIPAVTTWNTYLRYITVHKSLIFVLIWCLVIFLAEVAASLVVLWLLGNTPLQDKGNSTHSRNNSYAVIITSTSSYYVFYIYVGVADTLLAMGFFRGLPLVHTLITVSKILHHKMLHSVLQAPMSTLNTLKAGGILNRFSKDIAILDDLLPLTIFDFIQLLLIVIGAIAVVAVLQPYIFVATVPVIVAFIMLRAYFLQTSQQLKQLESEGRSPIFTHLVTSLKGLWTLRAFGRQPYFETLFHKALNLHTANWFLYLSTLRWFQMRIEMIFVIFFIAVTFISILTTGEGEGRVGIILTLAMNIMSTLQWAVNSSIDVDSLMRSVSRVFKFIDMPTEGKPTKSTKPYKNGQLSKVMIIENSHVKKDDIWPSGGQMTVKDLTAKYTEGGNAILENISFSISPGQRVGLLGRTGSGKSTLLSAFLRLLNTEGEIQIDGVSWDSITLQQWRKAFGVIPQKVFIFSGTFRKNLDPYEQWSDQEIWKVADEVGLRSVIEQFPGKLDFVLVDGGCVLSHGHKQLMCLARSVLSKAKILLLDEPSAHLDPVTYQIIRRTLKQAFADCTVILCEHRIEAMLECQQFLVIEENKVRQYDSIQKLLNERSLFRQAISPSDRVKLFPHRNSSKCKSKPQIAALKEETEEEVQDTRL
Nature of the assay: Measurement of delF508-CFTR-HRP surface expression in CFBE41o- cells.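 For DelF508-CFTR-HRP Amax %: percent efficacy relative to reference corrector lumacaftor.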 The note with it: delF508-CFTR-HRP surface expression, CFBE41o- cells; for EC50: read-out: DelF508-CFTR-HRP EC50; for Emax: read-out: DelF508-CFTR-HRP Amax %. The assay is classed as cell-based. In a few lines:
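Surface-trafficked delF508-CFTR detected via extracellular HRP tag, read as luminescence from a membrane-impermeant substrate in CFBE41o- cells. Cells pre-induced 48h with 500 ng/mL doxycycline, then exposed 24h at 37° C to a 10-point, 3-fold dilution series from 10 μM (DMSO ≤0.5%). Triplicate dose-responses fitted logistically for EC50 after per-plate normalization; fold change versus reference compound.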

The target of the next assay is T2, delF508-CFTR (Homo sapiens, UniProt P13569, DEL508-508).
T2 construct: functional activity of the CFTR channel (Chloride ion transport) in patient derived primary human bronchial epithelial cells; host or cells: patient-derived primary human bronchial epithelial cells (delF508-CFTR)
T2 sequence (P13569 with tags, fused parts or gaps DEL508-508): as above
In words: Measurement of delF508-CFTR functional activity in primary human bronchial epithelial cells (HBECs) using Multi-Transepithelial Clamp Circuit (MTECC-24) assay. The assay is classed as cell-based. The note with it: primary CF HBECs; for MTECC24 CFHBEC- Amax %: test compound added 24h before assay plus potentiator, relative to reference combination (2 μM corrector + 0.5 μM potentiator); for EC50: test compound added 24h before assay, in the presence of potentiator, mean of at least two replicates, read-out: MTECC24 CFHBEC- EC50. In a few lines:
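Compound tested as 10-point, 1-in-3 concentration response (0.1% or 0.2% DMSO), 24 h basolateral pre-incubation, then re-added to both sides. MTECC-24 measured Ieq in ALI-differentiated primary delF508 bronchial cells after amiloride, forskolin activation, potentiator and INH-172 block; data normalized to DMSO baseline, EC50 fitted.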

On to `Cc1ccccc1-c1nc(NS(=O)(=O)c2cccc(N[C@@H]3CCOC[C@@H]3O)n2)ccc1C(F)(F)F` (racemic) [Example 275, rac-6-{[(3RS,4RS)-3-hydroxyoxan-4-yl]amino}-N-[6-(2-methylphenyl)-5-(trifluoromethyl)pyridin-2-yl]pyridine-2-sulfonamide], for which the EC50 in assay [1] came out at 1070 nM. Besides, at delF508-CFTR, the “MTECC24 CFHBEC- Amax %” value was determined as 77.9% and the EC50 came to 1.5 nM.

As to `CC1(C(=O)O)CCN(c2cccc(S(=O)(=O)Nc3ccc(C(F)(F)F)c(-c4ccccc4Cl)n3)n2)CC1` [Example 238, 1-(6-(N-(6-(2-chlorophenyl)-5-(trifluoromethyl)pyridin-2-yl)sulfamoyl)pyridin-2-yl)-4-methylpiperidine-4-carboxylic Acid], in assay [1], the Emax came to 426% and the EC50 was determined as 3460 nM. Besides, at delF508-CFTR, the “MTECC24 CFHBEC- Amax %” value was found to be 59.0% and the EC50 is 19.6 nM.

In the case of `CCOC(=O)C1(C)CCN(c2cccc(S(=O)(=O)Nc3ccc(Cl)c(-c4c(C)cccc4C)n3)n2)CC1` [Example 249, ethyl 1-(6-(N-(5-chloro-6-(2,6-dimethylphenyl)pyridin-2-yl)sulfamoyl)pyridin-2-yl)-4-methylpiperidine-4-carboxylate], the EC50 in assay [1] is 1520 nM. In addition, on delF508-CFTR, the “MTECC24 CFHBEC- Amax %” value is given as 79.6% and the EC50 came to 6.7 nM.

Regarding `Cc1ccccc1-c1nc(NS(=O)(=O)c2cccc(N3CCN(CC(F)(F)F)CC3)n2)ccc1C(F)(F)F` [Example 186, N-(6-(o-tolyl)-5-(trifluoromethyl)pyridin-2-yl)-6-(4-(2,2,2-trifluoroethyl)piperazin-1-yl)pyridine-2-sulfonamide], the EC50 in assay [1] came to 1190 nM. For the same compound, at delF508-CFTR, the “MTECC24 CFHBEC- Amax %” value was found to be 81.5% and the EC50 was 2.6 nM.

`Cc1ccccc1-c1nc(NS(=O)(=O)c2ccnc(N)c2)ccc1Cl` [Example 57, 2-amino-N-(5-chloro-6-(o-tolyl)pyridin-2-yl)pyridine-4-sulfonamide]: in assay [1], the Emax was 285% and the EC50 came out at 1080 nM. For the same compound, on delF508-CFTR, the “MTECC24 CFHBEC- Amax %” value was found to be 72.9% and the concentration giving a half-maximal response (EC50) turned out to be 118 nM.

`Cc1cccc(C)c1-c1cc(C(F)(F)F)cc(NS(=O)(=O)c2cccc(N3CC(O)C3)n2)n1` [Example 205, N-(6-(2,6-dimethylphenyl)-4-(trifluoromethyl)pyridin-2-yl)-6-(3-hydroxyazetidin-1-yl)pyridine-2-sulfonamide]: in assay [1], the Emax was found to be 592% and the EC50 was found to be 1290 nM. For the same compound, at delF508-CFTR, the “MTECC24 CFHBEC- Amax %” value is reported as 66.8% and the EC50 was 1.8 nM.

For the compound `Cc1ccccc1-c1nc(NS(=O)(=O)c2cccc(N3CCN(C(=O)CN)CC3)n2)ccc1C(F)(F)F` [Example 191, 6-(4-glycylpiperazin-1-yl)-N-(6-(o-tolyl)-5-(trifluoromethyl)pyridin-2-yl)pyridine-2-sulfonamide hydrochloride], in assay [1], the Emax was 206% and the EC50 was found to be 3860 nM. For the same compound, on delF508-CFTR, the “MTECC24 CFHBEC- Amax %” value was 64.4% and the EC50 amounted to 101 nM.

With `Cc1ccc(F)cc1-c1nc(NS(=O)(=O)c2cccc(N[C@@H]3CCOC[C@H]3O)n2)ccc1Cl` [Example 273, N-[5-chloro-6-(5-fluoro-2-methylphenyl)pyridin-2-yl]-6-{[(3S,4R)-3-hydroxyoxan-4-yl]amino}pyridine-2-sulfonamide], the EC50 in assay [1] came to 1380 nM. Further, at delF508-CFTR, the “MTECC24 CFHBEC- Amax %” value was 70.9% and the half-maximal effective concentration (EC50) was 6.4 nM.

With `COc1ccc(F)cc1-c1nc(NS(=O)(=O)c2cccc(N3CCN(C(C)(C)C)CC3)n2)ccc1C(F)(F)F` [Example 149, 6-(4-(tert-butyl)piperazin-1-yl)-N-(6-(5-fluoro-2-methoxyphenyl)-5-(trifluoromethyl)pyridin-2-yl)pyridine-2-sulfonamide], in assay [1], the Emax came to 289% and the EC50 is 1750 nM. At delF508-CFTR, the “MTECC24 CFHBEC- Amax %” value came out at 76.0% and the EC50 was found to be 22.8 nM.

In the case of `Cc1ccccc1-c1nc(NS(=O)(=O)c2cccc(O[C@@H]3COCC3(C)O)n2)ccc1C(F)(F)F` (mixture of isomers) [Example 293, rac-6-{[(3RR,4SR)-4-hydroxy-4-methyloxolan-3-yl]oxy}-N-[6-(2-methylphenyl)-5-(trifluoromethyl)pyridin-2-yl]pyridine-2-sulfonamide], in assay [1], the Emax worked out at 590% and the EC50 was found to be 1960 nM. In addition, at delF508-CFTR, the “MTECC24 CFHBEC- Amax %” value was found to be 78.6% and the EC50 is 22 nM.

`Cc1ccc(F)cc1-c1nc(NS(=O)(=O)c2cccc(N3CCN[C@H](C)C3)n2)ccc1C(F)(F)F` [Example 176, (R)—N-(6-(5-fluoro-2-methylphenyl)-5-(trifluoromethyl)pyridin-2-yl)-6-(3-methylpiperazin-1-yl)pyridine-2-sulfonamide Hydrochloride]: in assay [1], the Emax came to 529% and the EC50 came out at 3420 nM. For the same compound, at delF508-CFTR, the “MTECC24 CFHBEC- Amax %” value stood at 69.8% and the EC50 was determined as 224 nM.

Consider `Cc1cccc(C)c1-c1nc(NS(=O)(=O)c2cccc(N3CCC(C)(C(=O)O)CC3)n2)ccc1Cl` [Example 250, 1-(6-(N-(5-chloro-6-(2,6-dimethylphenyl)pyridin-2-yl)sulfamoyl)pyridin-2-yl)-4-methylpiperidine-4-carboxylic Acid], for which, in assay [1], the Emax stood at 744% and the EC50 stood at 1830 nM. For the same compound, at delF508-CFTR, the “MTECC24 CFHBEC- Amax %” value is on record as 59.4% and the EC50 came to 11 nM.

`Cc1c(-c2nc(NS(=O)(=O)c3cccc(N)n3)ccc2Cl)cccc1C(F)(F)F` [Example 34, 6-amino-N-(5-chloro-6-(2-methyl-3-(trifluoromethyl)phenyl)pyridin-2-yl)pyridine-2-sulfonamide]: in assay [1], the Emax turned out to be 400% and the EC50 is 2520 nM. Further, on delF508-CFTR, the “MTECC24 CFHBEC- Amax %” value is listed as 58.2% and the EC50 amounted to 11.6 nM.

As to `Cc1c(F)cccc1-c1nc(NS(=O)(=O)c2ccnc(N3CC(O)C3)c2)ccc1Cl` [Example 323, N-(5-chloro-6-(3-fluoro-2-methylphenyl)pyridin-2-yl)-2-(3-hydroxyazetidin-1-yl)pyridine-4-sulfonamide], in assay [1], the Emax came to 252% and the EC50 came out at 2770 nM. In addition, at delF508-CFTR, the “MTECC24 CFHBEC- Amax %” value was 67.7% and the EC50 came to 147 nM.

Turning to `Cc1ccccc1-c1nc(NS(=O)(=O)c2cccc(N3CCN(CC(F)F)CC3)n2)ccc1C(F)(F)F` [Example 185, 6-(4-(2,2-difluoroethyl)piperazin-1-yl)-N-(6-(o-tolyl)-5-(trifluoromethyl)pyridin-2-yl)pyridine-2-sulfonamide], in assay [1], the Emax was determined as 877% and the EC50 turned out to be 1460 nM. Also, on delF508-CFTR, the “MTECC24 CFHBEC- Amax %” value is given as 105.5% and the EC50 was 4.6 nM.

For the compound `Cc1ccccc1-c1nc(NS(=O)(=O)c2cccc(N3CCC4(CCC[C@H]4N)CC3)n2)ccc1C(F)(F)F` [Example 304, (R)-6-(1-amino-8-azaspiro[4.5]decan-8-yl)-N-(6-(o-tolyl)-5-(trifluoromethyl)pyridin-2-yl)pyridine-2-sulfonamide], in assay [1], the Emax turned out to be 421% and the EC50 came out at 3920 nM. Moreover, at delF508-CFTR, the “MTECC24 CFHBEC- Amax %” value was 63.4% and the EC50 was 8.5 nM.

For `Cc1ccccc1-c1nc(NS(=O)(=O)c2cccc(N[C@@H]3CCCNC3)n2)ccc1C(F)(F)F` [Example 104, (R)-6-(piperidin-3-ylamino)-N-(6-(o-tolyl)-5-(trifluoromethyl)pyridin-2-yl)pyridine-2-sulfonamide Hydrochloride], the EC50 in assay [1] was determined as 2140 nM; at delF508-CFTR it was 24.5 nM. Moreover, on delF508-CFTR, the “MTECC24 CFHBEC- Amax %” value came out at 73.4%.

`Cc1ccccc1-c1nc(NS(=O)(=O)c2cccc(O[C@@H]3COC[C@@]3(C)O)n2)ccc1C(F)(F)F` (single isomer, unassigned) [Example 295]: in assay [1], the Emax was determined as 468% and the EC50 was 2030 nM. Also, at delF508-CFTR, the “MTECC24 CFHBEC- Amax %” value is given as 68.7% and the EC50 was found to be 26.1 nM.

Turning to `O=S(=O)(Nc1ccc(C(F)(F)F)c(-c2ccccc2C2CC2)n1)c1cccc(N2CC(O)C2)n1` [Example 208, N-(6-(2-cyclopropylphenyl)-5-(trifluoromethyl)pyridin-2-yl)-6-(3-hydroxyazetidin-1-yl)pyridine-2-sulfonamide], in assay [1], the Emax worked out at 607% and the EC50 was 1380 nM. Also, at delF508-CFTR, the “MTECC24 CFHBEC- Amax %” value was found to be 88.1% and the EC50 is 5.2 nM.

As for `Cc1cccc(C)c1-c1nc(NS(=O)(=O)c2cccc(N3CCn4cc(C(F)(F)F)nc4C3)n2)ccc1Cl` [Example 199, N-(5-chloro-6-(2,6-dimethylphenyl)pyridin-2-yl)-6-(2-(trifluoromethyl)-5,6-dihydroimidazo[1,2-a]pyrazin-7(8H)-yl)pyridine-2-sulfonamide], in assay [1], the Emax was 700% and the EC50 came out at 2220 nM. At delF508-CFTR, the “MTECC24 CFHBEC- Amax %” value was 87.1% and the EC50 came out at 38.3 nM.
